Measurements as given in patent publication US4551534A, “Aralkyl or aryloxyalkyl 1,7-naphthyridine-3-carboxylic acid esters” (American Home Products Corporation, priority 1984, dated 1985).

Key:
[1] = test system: isolated paced intact rabbit atria; assay: Cardiac depressant (negative inotropic) effects in isolated paced intact rabbit atria; conditions: 3 Hz, 30° C., cumulative 10^-9 M to 10^-5 M
Procedure: (§1) The potential for detrimental cardiac depressant (negative inotropic) effects of the compounds of this invention was assessed in isolated paced intact rabbit atria. […] Muscles (N=5-9/compound) were stimulated at a frequency of 3 Hz with a WPI stimulator for a 60 minute equilibration period. Changes in isometric force were recorded as described for the aortic smooth muscle experiments,supra. […]

[2] = test system: spontaneously hypertensive rats; assay: Hypotensive in vivo effect: systolic blood pressure of spontaneously hypertensive rats; parameters: species or system rat; conditions: 50 mg/kg oral, group of 4 spontaneously hypertensive rats
Procedure: The hypotensive in vivo effect of the compounds of this invention was determined by measuring changes in the systolic blood pressure of spontaneously hypertensive rats with a Decker Caudal Plethysmograph. The compound being tested was administered to a group of 4 rats and their systolic pressure was determined prior to and at 1.5 and 4 hours after compound administration. Initial testing was done by oral administration of the compound at a dose of 50 mg/kg body weight. Results (mmHg) are expressed as decreases in systolic blood pressure.
(§2) The following examples illustrate the preparation of a representative number of compounds of this invention. After each example, the Ca^+2 antagonist activity of the compound is presented in terms of percent relaxation (P.R.) at 10^-5 M concentration unless indicated otherwise. Similarly, the antihypertensive activity is reported in terms of millimeters mercury (mmHg) blood pressure (B.P.) reduction at the stated time post 50 mg/kg oral dosing or other dosing as indicated.

[3] = test system: rabbit aortic smooth muscle; assay: Ca+2 antagonism: relaxation of KCl-depolarized rabbit aortic smooth muscle strips; conditions: Oryctolagus cuniculus, 20 min; 10^-5 M; 100 mM KCl contraction; mean of two experiments 20 minutes after addition; read-out: percent relaxation (P.R.)
Procedure: The composition of PSS was as follows (mM): NaCl 112, KCl 5, NaHCO3 25, KH2 PO4 1, MgSO4 1.2, CaCL2 2.5, dextrose 10. The lower end of each tissue strip was attached to a fixed post and the upper end to a Statham UC-4 transducer. Changes in force development were recorded on a Beckman Dynograph Polygraphic Recorder.
Following equilibration, the muscles were contracted in a depolarizing solution of PSS in which 100 mM KCl was substituted for an equimolar concentration of NaCl. Following attainment of steady-state isometric force (20 min.), the test compound was added to afford a final concentration of 1×10^-5 M. The inhibitory effect, expressed as percent relaxation, was determined from the mean of two experiments twenty minutes after the addition of the compound being tested.
as §2

[4] = test system: spontaneously hypertensive rats; assay: Hypotensive in vivo effect: systolic blood pressure of spontaneously hypertensive rats; parameters: species or system rat; conditions: 50 mg/kg oral
[5] = Cardiac depressant (negative inotropic) effects in isolated paced intact rabbit atria; conditions: isolated paced atria, 10^-5 M, read-out: inhibition (of developed isometric force) at the highest concentration
Procedure: as §1

| SMILES | IC25 (concentration which produces 25% inhibition of isometric force) [1] | blood pressure (B.P.) reduction at 1.5 hours [2] | blood pressure (B.P.) reduction at 4 hours [2] | inhibition at 10 µM [3] | blood pressure (B.P.) reduction at 24 hours [4] | inhibition at 10 µM [5] |
| --- | --- | --- | --- | --- | --- | --- |
| COC(=O)C1=C(C)NC2=C(C(=O)CN(CC(O)COc3cccc(C)c3C)C2)C1c1c(F)c(F)c(F)c(F)c1F (stereo not shown) [Example 2, 7-[3-(2,3-Dimethylphenoxy)-2-hydroxypropyl]-1,4,5,6,7,8-hexahydro-2-methyl-5-oxo-4-(pentafluorophenyl)-1,7-naphthyridine-3-carboxylic acid methyl ester] | 5 µM | -56 mmHg | -86 mmHg | 65% | -28 mmHg | – |
| COC(=O)C1=C(C)NC2=C(C(=O)CN(CC(O)COc3cccc(C)c3C)C2)C1c1cccc(Cl)c1Cl (stereo not shown) [Example 8, 4-(2,3-Dichlorophenyl)-7-[3-(2,3-dimethylphenoxy)-2-hydroxypropyl]-1,4,5,6,7,8-hexahydro-2-methyl-5-oxo-1,7-naphthyridine-3-carboxylic acid methyl ester] | 7 µM | -16 mmHg | -41 mmHg | 50% | – | – |
| COC(=O)C1=C(C)NC2=C(C(=O)CN(CC(O)COc3cccc(Cl)c3Cl)C2)C1c1ccccc1C (stereo not shown) [Example 5, 7-[3-(2,3-Dichlorophenoxy)-2-hydroxypropyl]-1,4,5,6,7,8-hexahydro-2-methyl-4-(2-methylphenyl)-5-oxo-1,7-naphthyridine-3-carboxylic acid methyl ester] | > 10 µM | -23 mmHg | -25 mmHg | 62% | – | – |
| NCCCCCCNS(=O)(=O)c1cccc2c(Cl)cccc12 [Example W-7, reference compound] | – | – | – | – | – | < 20% |
| CCOC(=O)C1=C(C)NC(C)=C(C(=O)OC)C1c1cccc(Cl)c1Cl (stereo not shown) [felodipine, reference compound] | 0.8 µM | – | – | – | – | – |
| COC(=O)C1=C(C)NC2=C(C(=O)CN(CCCOc3ccccc3)C2)C1c1c(F)c(F)c(F)c(F)c1F (stereo not shown) [Example 9, 1,4,5,6,7,8-Hexahydro-2-methyl-5-oxo-4-(pentafluorophenyl)-7-(3-phenoxypropyl)-1,7-naphthyridine-3-carboxylic acid methyl ester] | 3.5 µM | -43 mmHg | -41 mmHg | 61% | – | – |
| COC(=O)C1=C(C)NC2=C(C(=O)CN(CC(O)COc3cccc(C)c3C)C2)C1c1ccccc1C (stereo not shown) [Example 1, 7-[3-(2,3-Dimethylphenoxy)-2-hydroxypropyl]-1,4,5,6,7,8-hexahydro-2-methyl-4-(2-methylphenyl)-5-oxo-1,7-naphthyridine-3-carboxylic acid methyl ester] | > 10 µM | -30 mmHg | -34 mmHg | 91% | – | – |
| COc1ccc(CCN(C)CCCC(C#N)(c2ccc(OC)c(OC)c2)C(C)C)cc1OC (stereo not shown) [Verapamil, reference compound] | 0.06 µM | – | – | – | – | – |
| COC(=O)C1=C(C)NC2=C(C(=O)CN(CC(O)COc3cccc(C)c3C)C2)C1c1c(F)c(F)cc(F)c1F (stereo not shown) [Example 3] | 6 µM | -25 mmHg | -56 mmHg | 63% | – | – |
| CCOC(=O)C1=C(C)NC(C)=C(C(=O)OC)C1c1cccc([N+](=O)[O-])c1 (stereo not shown) [nitrendipine, reference compound] | 0.35 µM | – | – | – | – | – |
| COC(=O)C1=C(C)NC2=C(C(=O)CN(CC(O)COc3ccccc3)C2)C1c1c(F)c(F)c(F)c(F)c1F (stereo not shown) [Example 6, 1,4,5,6,7,8-Hexahydro-2-methyl-5-oxo-4-(pentafluorophenyl)-7-(3-phenoxy-2-hydroxypropyl)-1,7-naphthyridine-3-carboxylic acid methyl ester] | 4.5 µM | -54 mmHg | -80 mmHg | 67% | – | – |
| COC(=O)C1=C(C)NC2=C(C(=O)CN(CC(O)c3ccccc3)C2)C1c1c(F)c(F)c(F)c(F)c1F (stereo not shown) [Example 11, 1,4,5,6,7,8-Hexahydro-7-(2-hydroxy-2-phenylethyl)-2-methyl-5-oxo-4-pentafluorophenyl-1,7-naphthyridine-3-carboxylic acid methyl ester] | – | -58 mmHg | -73 mmHg | 66.5% | – | – |
| COC(=O)C1=C(C)NC2=C(C(=O)CN(CC(O)CCc3ccccc3)C2)C1c1c(F)c(F)c(F)c(F)c1F (stereo not shown) [Example 10, 1,4,5,6,7,8-Hexahydro-7-(2-hydroxy-4-phenylbutyl)-2-methyl-5-oxo-4-(pentafluorophenyl)-1,7-naphthyridine-3-carboxylic acid methyl ester] | 3 µM | -41 mmHg | -51 mmHg | 80.5% | – | – |
| COC(=O)C1=C(C)NC2=C(C(=O)CN(CC(O)COc3cccc(C)c3C)C2)C1c1c(F)ccc(Cl)c1Cl (stereo not shown) [Example 4, 4-(2,3-Dichloro-6-fluorophenyl)-7-[3-(2,3-dimethylphenoxy)-2-hydroxypropyl]1,4,5,6,7,8-hexahydro-2-methyl-5-oxo-1,7-naphthyridine-3-carboxylic acid methyl ester] | > 10 µM | -56 mmHg | -72 mmHg | 42% | – | – |
| COC(=O)C1=C(C)NC2=C(C(=O)CN(CC(O)COc3ccc(OC)cc3)C2)C1c1c(F)c(F)c(F)c(F)c1F (stereo not shown) [Example 7, 1,4,5,6,7,8-Hexahydro-7-[3-(4-methoxyphenoxy)-2-hydroxypropyl]-2-methyl-5-oxo-4-(pentafluorophenyl)-1,7-naphthyridine-3-carboxylic acid methyl ester] | 5 µM | -31 mmHg | -56 mmHg | 73% | – | – |
| COC(=O)C1=C(C)NC(C)=C(C(=O)OC)C1c1ccccc1[N+](=O)[O-] [nifedipine, reference compound] | 0.05 µM | – | – | – | – | – |
